Structures are written as SMILES. pIC50: −log10 of the molar value. Values after ≈ are worked out from the molar mass of the structure shown. A value given as a limit tells only on which side of the number the result lay.

Data set [1] addresses ACC1 (Homo sapiens, UniProt Q13085). As to the kind of experiment: Inhibition of ACC1 by metabolites of Compound 1. The class given is biochemical.
Data set [2] in a line: Log P and Log D determination (potentiometric). Type of data set: physicochemical. The following applies: octanol/water, pH 7.4. The protocol: Log P analysis was performed using a potentiometric (pH-metric) method. The sample was titrated in various ratios of octanol/water in two titrations covering the pH range from 1.9 to 12.0 at concentrations of 1.0 to 0.6 mM. The shift of the aqueous pKa in the presence of octanol was used to determine log P of the neutral and anionic species. From this information a lipophilicity profile was constructed, such that that log D at a given pH could be determined.

Data set [3] in a line: Dynamic vapor sorption (DVS). To be noted: for state or form of the material after the DVS experiment: post DVS, XRPD. Type of data set: physicochemical. From the text:
For DVS analysis as discussed in Example 8, approximately 10 milligrams of sample was placed into a mesh vapor sorption balance pan and loaded into a DVS-1 dynamic vapor sorption balance (Surface Measurement Systems). The sample was subjected to a ramping profile from 0-90% relative humidity (RH) at 10% increments, maintaining the sample at each step until a stable weight had been achieved (99.5% step completion). After completion of the sorption cycle, the sample was dried using the reverse procedure, lowering the RH to 0%. The weight change during the sorption/desorption cycles was plotted.
For Examples 2, 5, 7, 9, and 13 to 18, hygroscopicity was studied using dynamic vapor sorption (DVS, TA Q5000 SA, TA Instruments, New Castle, Del. or DVS, DVS Intrinsic, Surface Measurement Systems, London, UK). A sample (2-20 mg) was placed in an aluminum DVS pan and loaded on the sample side of the twin pan balance. The water sorption and desorption were studied as a function of relative humidity (RH) at 25° C. In 10% RH increments, the relative humidity was increased from 5% RH to 95% RH and then decreased back to 5%. […] Data analysis was performed using Universal Analysis 2000 Version 4.7A (TA Instruments, New Castle, Del.) for TA DVS runs and Microsoft Excel for SMS DVS runs.

Data set [4] can be described thus: Competitive slurrying of crystal forms. The class given is physicochemical.
Another data set in a line: Aqueous solubility. The class given is physicochemical. The protocol:
Purity and concentration analyses were carried out using the following method: […]

Data set [5] concerns ACC1. The following applies: enzyme isolated from rat, mouse, monkey and human; cited from earlier work.
The next data set relates to ACC2. The following applies: enzyme isolated from rat, mouse, monkey and human; cited from earlier work.
Data set [6] in a line: Storage stability at 40° C. and 75% RH. The class given is physicochemical. To be noted: 7 days at 40° C. and 75% RH. The protocol: 100 milligrams of Form IV of Compound 1, prepared according to the method of Example 5, was heated to 80° C. in an oven. Form VII was confirmed to be a desolvated form of Form IV, produced by drying the methanol solvate Form IV. […] Differential scanning calorimetry (DSC) results (FIG. 40) were consistent with thermogravimetric analysis. […] (peak at 141.4° C.), with the peak of the exotherm at 151.6° C. […] (peak at 195.0° C.). A smaller endotherm with a peak at 207.0° C. was likely to indicate formation of a higher melting crystalline form. […] The uptake between 40 and 70% RH could potentially be indicative of hydrate formation (tentatively assigned the name Form IX). […] NMR and IR data confirmed the structural integrity of Compound 1 present.

The nature of data set [7]: Prolonged exposure to water (XRPD). Type of data set: physicochemical.
The mark [8] stands for this setting: acetone, acetonitrile:water (10%), ethanol, ethyl acetate, ambient temperature and 60° C., XRPD and DSC.

In the case of `Cc1c(-c2ncco2)sc2c1c(=O)n(C(C)(C)C(=O)O)c(=O)n2C[C@H](OC1CCOCC1)c1ccccc1O` [M-CH3 metabolite], the pIC50 at ACC1 [1] is 7.66.

In data set [2], `COc1ccccc1[C@H](Cn1c(=O)n(C(C)(C)C(=O)O)c(=O)c2c(C)c(-c3ncco3)sc21)OC1CCOCC1` [Form I] showed a logD of 1.06. The “weight gain (moisture sorption)” value in data set [3] (at about 95% RH) is on record as around 0.45%. Moreover, the “state or form of the material after the DVS experiment” value in data set [3] is recorded as “had not changed forms”. Also, in data set [4] (between 22-60° C.), the relative thermodynamic stability entry was “more thermodynamically stable form”. The same compound came in with a solubility in “Aqueous solubility” (aqueous medium, aqueous buffer, pH 5.5 and below) below 10 µg/mL.

As for `O=C(c1c2ccccc2cc2ccccc12)N1CCC(N2CCC[C@@H](C(=O)N3CCOCC3)C2)CC1` [CP-640186], the pIC50 in the data set on ACC1 [5] and in the data set with ACC2 was around 7.22 in each case.

`COc1ccccc1[C@H](Cn1c(=O)n(C(C)(C)C(=O)O)c(=O)c2c(C)c(-c3ncco3)sc21)OC1CCOCC1` [Form VII]: in [6], the “chemical and physical stability on storage” value was “chemically and physically stable”; the purity after storage is 99.85%. The “water uptake (DVS)” value in [3] (at 90% RH) was above 4%. Moreover, in data set [3], the “state or form of the material after the DVS experiment” value is “no change in form”. Further, the “form change on prolonged exposure to water” value in data set [7] is on record as “conversion of Form VII to Form I”. Besides, in data set [4] (setting [8]), the “result of competitive slurrying with Form I” value is listed as “conversion to Form I”. In the data set “Aqueous solubility” (water), this compound yielded a solubility of 109 µg/mL (≈ 191 µM).

As for `COc1ccccc1[C@H](Cn1c(=O)n(C(C)(C)C(=O)O)c(=O)c2c(C)c(-c3ncco3)sc21)OC1CCOCC1` [Form VIII], the “result of competitive slurrying with Form I” value is given as “conversion to Form I” in [4] (1:1 ratio in 6:4 ethanol:water, room temperature, about two weeks, XRPD) and “conversion to Form I” in data set [4] (setting [8]).

For the compound `COc1ccccc1[C@H](Cn1c(=O)n(C(C)(C)C(=O)OC2OC(C(=O)O)C(O)C(O)C2O)c(=O)c2c(C)c(-c3ncco3)sc21)OC1CCOCC1` (stereo partly drawn) [M+glucuronide conjugate], the pIC50 on ACC1 [1] was 8.30.
